IC50 data for 48 molecules are collected here from patent US20260256789A1, “METHODS FOR TREATMENT OF CANCER” (Frontier Medicines Corporation, priority 2022, published 2026).

The structures appear in SMILES notation. Bounds are passed on as bounds.

T1 sequence (P01116 1-169 isoform P01116-2 G12C/C51S/C80L/C118S): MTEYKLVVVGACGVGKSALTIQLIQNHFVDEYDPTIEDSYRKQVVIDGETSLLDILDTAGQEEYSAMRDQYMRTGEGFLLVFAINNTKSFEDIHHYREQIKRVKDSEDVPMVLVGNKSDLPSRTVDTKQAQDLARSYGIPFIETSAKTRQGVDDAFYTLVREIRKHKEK

The experiment addresses T1, KRAS G12C (GMPPNP-loaded) and cRAF Ras-binding domain (Homo sapiens, UniProt P01116, C118S/C51S/C80L/G12C).
T1 construct: truncated version comprising amino acids 1-169
The experiment is described as follows: Inhibition of KRAS G12C and cRAF binding (AlphaScreen). The conditions noted are these: KRAS G12C preloaded with GTP analogue GMPPNP, 2 hours preincubation. The method, boiled down:
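Compounds (10-point, 1:3 from 50 μM; 2% DMSO) were incubated 2 h at room temperature with 0.5 nM GMPPNP-preloaded truncated Cys-light KRAS G12C, then 60-90 min with 0.75 nM GST-RBD of cRAF and AlphaScreen beads. Signal at 570 nm gave IC50 by 4-parameter regression, and a biotin-AviTag-GST counter assay excluded interference with the AlphaScreen readout.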
With `C=CC(=O)N1CC[C@@H](N(C)c2nc(OC[C@@]34CCCN3C[C@H](F)C4)nc3c(F)c(-c4cc(O)cc(F)c4C4CC4)ncc23)C1` [Example 206], the IC50 was under 10 nM.

Turning to `C=CC(=O)N1CC(CN(C)c2nc(OCC34CCCN3CCC4)nc3c2CC(C)C(c2nc(N)cc(C)c2C(F)(F)F)C3)C1` (stereo not drawn) [Example 207], the IC50 is at least 500 nM.

In the case of `CN(c1nc(OC[C@@]23CCCN2C[C@H](F)C3)nc2c(F)c(-c3cccc(Cl)c3C3CC3)ncc12)[C@@H]1CCN(C(=O)C#C[C@]2(C)CCCN2C)C1` [Example 208], the IC50 lay within 10 to 100 nM.

`C=CC(=O)N1CC[C@@H](N(C)c2nc(OC[C@@]34CCCN3C[C@H](F)C4)nc3c(F)c(-c4nccc5cccc(Cl)c45)ncc23)C1` [Example 209]: the IC50 is at least 500 nM.

In the case of `CO[C@H]1CCN(C/C=C/C(=O)N2CC[C@@H](N(C)c3nc(OC[C@@]45CCCN4C[C@H](F)C5)nc4c(F)c(-c5cccc(Cl)c5C5CC5)ncc34)C2)C1` [Example 210], the IC50 is 10 to 100 nM.

Molecule `C=CC(=O)N1CC[C@@H](N(C)c2nc(OC[C@@]34CCCN3C[C@H](F)C4)nc3c(F)c(-c4nccc(C)c4C(F)(F)F)ncc23)C1` [Example 211] showed an IC50 of at least 500 nM.

The molecule `C=CC(=O)N1CC[C@@H](N(C)c2nc(OC[C@@]34CCCN3C[C@H](F)C4)nc3c(F)c(-c4cnn5cccc(F)c45)ncc23)C1` [Example 212] returned an IC50 of at least 500 nM.

Molecule `CN1CC[C@@H]1/C=C/C(=O)N1CC[C@@H](N(C)c2nc(OC[C@@]34CCCN3C[C@H](F)C4)nc3c(F)c(-c4cc(O)cc(Cl)c4C4CC4)ncc23)C1` [Example 213] yielded an IC50 of under 10 nM.

In the case of `CC(C)c1noc(/C=C/C(=O)N2CC[C@@H](N(C)c3nc(OC[C@@]45CCCN4C[C@H](F)C5)nc4c(F)c(-c5nc(N)ccc5OC(F)F)ncc34)C2)n1` [Example 214], the IC50 is 10 to 100 nM.

As for `CN(c1nc(OC[C@@]23CCCN2C[C@H](F)C3)nc2c(F)c(-c3cccc(Cl)c3C3CC3)ncc12)[C@@H]1CCN(C(=O)C#C[C@@]2(C)CCCN2)C1` [Example 215], the IC50 was under 10 nM.

`C#Cc1cccc2[nH]nc(-c3ncc4c(N(C)[C@@H]5CCN(C(=O)C=C)C5)nc(OC[C@@]56CCCN5C[C@H](F)C6)nc4c3F)c12` [Example 216] gave an IC50 of at least 500 nM.

For `C=CC(=O)N1CC[C@@H](N(C)c2nc(OC[C@@]34CCCN3C[C@H](F)C4)nc3c(F)c(-c4cccc(Cl)c4C(F)(F)F)ncc23)[C@H]1C` [Example 217], the IC50 is 10 to 100 nM.

Consider `C=CC(=O)N1CC[C@@H](N(C)c2nc(OC[C@@]34CCCN3C[C@H](F)C4)nc3c(F)c(-c4c(O)cccc4C4CC4)ncc23)C1` [Example 218], for which the IC50 was at least 500 nM.

As to `C=CC(=O)N1CC[C@@H](N(C)c2nc(OC[C@@]34CCCN3C[C@H](F)C4)nc3c(F)c(-c4cccn5cncc45)ncc23)C1` [Example 219], the IC50 is at least 500 nM.

On to `C=CC(=O)N1CC[C@@H](N(C)c2nc(OC[C@@]34CCCN3C[C@H](F)C4)nc3c(F)c(-c4cccc(F)c4C4CC4)ncc23)C1` [Example 220], for which the IC50 was at least 500 nM.

Turning to `Cc1nccc(/C=C/C(=O)N2CC[C@@H](N(C)c3nc(OC[C@@]45CCCN4C[C@H](F)C5)nc4c(F)c(-c5cccc(Cl)c5C5CC5)ncc34)C2)n1` [Example 221], the IC50 was in the range of 100 to 500 nM.

`CO[C@@H]1CCN(C/C=C/C(=O)N2CC[C@@H](N(C)c3nc(OC[C@@]45CCCN4C[C@H](F)C5)nc4c(F)c(-c5cccc(Cl)c5C5CC5)ncc34)C2)C1` [Example 222] displayed a concentration for half-maximal inhibition (IC50) of 100 to 500 nM.

`CN(c1nc(OC[C@@]23CCCN2C[C@H](F)C3)nc2c(F)c(-c3cccc(Cl)c3C3CC3)ncc12)[C@@H]1CCN(C(=O)C#CCN2CCOCC2)C1` [Example 223] had an IC50 of 100 to 500 nM.

`C=CC(=O)N1CCC(N(C)c2nc(OC[C@@]34CCCN3C[C@H](F)C4)nc3c(F)c(-c4n[nH]c5cccc(Cl)c45)ncc23)C1` (stereo partly drawn) [Example 224]: the IC50 is at least 500 nM.

Take `C=CC(=O)N1CC[C@@H](N(C)C2=c3cnc(-c4c[nH]nc4Cl)c(F)c3=NC(OC[C@@]34CCCN3C[C@H](F)C4)N2)C1` (stereo partly drawn) [Example 225]: the IC50 is at least 500 nM.

For the molecule `CN1CC[C@@H]1/C=C/C(=O)N1CC[C@@H](N(C)c2nc(OC[C@@]34CCCN3C[C@H](F)C4)nc3c(F)c(-c4cccc(Cl)c4C4CC4)ncc23)C1` [Example 227], the IC50 is under 10 nM.

Turning to `C=CC(=O)N1CC[C@@H](N(C)c2nc(OC[C@@]34CCCN3C[C@H](F)C4)nc3c(F)c(-c4cc(O)c(C)cc4C4CC4)ncc23)C1` [Example 228], the IC50 was at least 500 nM.

In turn, `C=CC(=O)N1CC[C@@H](N(C)c2nc(OC[C@@]34CCCN3C[C@H](F)C4)nc3c(F)c(-c4c(O)cccc4Cl)ncc23)C1` [Example 229] had an IC50 of at least 500 nM.

Consider `C=CC(=O)N1CC[C@@H](N(C)c2nc(OC[C@@]34CCCN3C[C@H](F)C4)nc3c(F)c(-c4cc(OC)cc5nccnc45)ncc23)C1` [Example 230], for which the IC50 was at least 500 nM.

The molecule `CN(c1nc(OC[C@@]23CCCN2C[C@H](F)C3)nc2c(F)c(-c3cccc(Cl)c3C3CC3)ncc12)[C@@H]1CCN(C(=O)/C=C/CN2C[C@@H]3C[C@H]2CO3)C1` [Example 231] gave an IC50 of 10 to 100 nM.

With `C=CC(=O)N1CC[C@@H](N(C)c2nc(OC[C@@]34CCCN3C[C@H](F)C4)nc3c(F)c(-c4c(C)cc(F)c5[nH]ncc45)ncc23)C1` [Example 232], the IC50 was at least 500 nM.

`C=CC(=O)N1CC[C@@H](N(C)c2nc(OC[C@@]34CCCN3C[C@H](F)C4)nc3c(F)c(-c4ccc(O)cc4C4CC4)ncc23)C1` [Example 233] returned an IC50 of at least 500 nM.

`C=CC(=O)N1CC[C@@H](N(C)c2nc(OC[C@@]34CCCN3C[C@H](F)C4)nc3c(F)c(-c4cccn5nccc45)ncc23)C1` [Example 234] had an IC50 of at least 500 nM.

As to `CN(c1nc(OC[C@@]23CCCN2C[C@H](F)C3)nc2c(F)c(-c3cccc(Cl)c3C3CC3)ncc12)[C@@H]1CCN(C(=O)C#C[C@@]2(C)CCCN2C)C1` [Example 235], the IC50 lay in the range of 10 to 100 nM.

In turn, `C=CC(=O)N1CC[C@@H](N(C)c2nc(OC[C@@]34CCCN3C[C@H](F)C4)nc3c(F)c(-c4cccc(Cl)c4C4CC4)ncc23)[C@H]1C` [Example 236] gave a half-inhibitory concentration (IC50) of 100 to 500 nM.

`C=CC(=O)N1CC[C@H](O)[C@@H](N(C)c2nc(OC[C@@]34CCCN3C[C@H](F)C4)nc3c(F)c(-c4cccc(Cl)c4C4CC4)ncc23)C1` [Example 237]: the IC50 was at least 500 nM.

`CN(c1nc(OC[C@@]23CCCN2C[C@H](F)C3)nc2c(F)c(-c3cccc(Cl)c3C3CC3)ncc12)[C@@H]1CCN(C(=O)/C=C/CN2CC[C@H](F)C2)C1` [Example 238] registered an IC50 of 10 to 100 nM.

For the molecule `Cc1cc(N)nc(-c2ncc3c(N(C)[C@@H]4CCN(C#N)C4)nc(OC[C@@]45CCCN4C[C@H](F)C5)nc3c2F)c1C(F)(F)F` [Example 239], the IC50 was under 10 nM.

Take `C=CC(=O)N1CC[C@@H](N(C)c2nc(OC[C@@]34CCCN3C[C@H](F)C4)nc3c(F)c(-c4cncc(Cl)c4C4CC4)ncc23)C1` [Example 240]: the IC50 is at least 500 nM.

As to `CN(c1nc(OC[C@@]23CCCN2C[C@H](F)C3)nc2c(F)c(-c3cccc(Cl)c3C3CC3)ncc12)[C@@H]1CCN(C(=O)/C=C/CN2[C@@H]3CC[C@H]2COC3)C1` [Example 241], the IC50 was 10 to 100 nM.

`CN1CC[C@@H]1/C=C/C(=O)N1CC[C@@H](N(C)c2nc(OC[C@@]34CCCN3C[C@H](F)C4)nc3c(F)c(-c4cccc(Cl)c4C(F)(F)F)ncc23)C1` [Example 242]: the IC50 lay within 10 to 100 nM.

Molecule `C=CC(=O)N1C[C@H](F)[C@@H](N(C)c2nc(OC[C@@]34CCCN3C[C@H](F)C4)nc3c(F)c(-c4cc(O)cc(Cl)c4C4CC4)ncc23)C1` [Example 243] had an IC50 of under 10 nM.

Turning to `C=CC(=O)N1CC[C@@H](N(C)c2nc(OC[C@@]34CCCN3C[C@H](F)C4)nc3c(F)c(-c4cccc5sc(N)nc45)ncc23)C1` [Example 244], the IC50 lay in the range of 10 to 100 nM.

On to `CN(c1nc(OC[C@@]23CCCN2C[C@H](F)C3)nc2c(F)c(-c3cccc(Cl)c3C3CC3)ncc12)[C@@H]1CCN(C(=O)/C=C/CN2C[C@H]3C[C@@H]2CO3)C1` [Example 245], for which the IC50 was 10 to 100 nM.

In turn, `C=CC(=O)N1CC[C@@H](N(C)c2nc(OC[C@@]34CCCN3C[C@H](F)C4)nc3c(F)c(-c4ncn5ccccc45)ncc23)C1` [Example 246] showed an IC50 of at least 500 nM.

`Cc1cc(/C=C/C(=O)N2CC[C@@H](N(C)c3nc(OC[C@@]45CCCN4C[C@H](F)C5)nc4c(F)c(-c5cccc(Cl)c5C5CC5)ncc34)C2)nc(C)n1` [Example 247] returned an IC50 of 100 to 500 nM.

As to `C=CC(=O)N1CC[C@@H](N(C)c2nc(OC[C@@]34CCCN3C[C@H](F)C4)nc3c(F)c(-c4cc(O)cc(Cl)c4C(F)(F)F)ncc23)C1` [Example 248], the IC50 was under 10 nM.

In turn, `C=CC(=O)N1CC[C@@H](N(C)c2nc(OC[C@@]34CCCN3C[C@H](F)C4)nc3c(F)c(-c4cc(F)cc(F)c4C4CC4)ncc23)C1` [Example 249] came in with an IC50 of at least 500 nM.

For `C=CC(=O)N1CC[C@@H](N(C)c2nc(OC[C@@]34CCCN3C[C@H](F)C4)nc3c(F)c(-c4cc(C(F)F)ccc4Cl)ncc23)C1` [Example 251], the IC50 was at least 500 nM.

Consider `C=CC(=O)N1CC[C@@H](N(C)c2nc(OC[C@@]34CCCN3C[C@H](F)C4)nc3c(F)c(-c4cccc(Cl)c4C4CC4)ncc23)C1` [Example 252], for which the IC50 lay in the range of 10 to 100 nM.

`C=CC(=O)N1CC[C@@H](N(C)c2nc(OC[C@@]34CCCN3C[C@H](F)C4)nc3c(F)c(-c4cc(O)cnc4C4CC4)ncc23)C1` [Example 253] registered an IC50 of at least 500 nM.

As for `Cc1nccc(/C=C/C(=O)N2CC[C@@H](N(C)c3nc(OC[C@@]45CCCN4C[C@H](F)C5)nc4c(F)c(-c5cc(O)cc(Cl)c5C5CC5)ncc34)C2)n1` [Example 254], the IC50 is under 10 nM.

In the case of `C=CC(=O)N1CC[C@@H](N(C)c2nc(OC[C@@]34CCCN3C[C@H](F)C4)nc3c(F)c(-c4cccc(Cl)c4C(F)(F)F)ncc23)C1` [Example 255], the IC50 was 100 to 500 nM.
